{
  "source": "patent US8222242B2",
  "about": "“Nitric oxide releasing compounds” (The Regents of the University of California, priority 2008, dated 2012)",
  "key": {"D. melanogaster": {"system": "D. melanogaster", "experiment": "Nitrite and nitrate in extracts of injected flies", "format": "in vivo, Drosophila melanogaster", "conditions": "1 μl of 1 mM NO-Cbi injected", "method": "Nitrite and nitrate in extracts of NO-Cbi-injected flies were measured, and, as in the studies with CS-54 cells, a little over 50% of the injected NO as nitrite and nitrate was recovered (FIG. 3c). The nitrite/nitrate levels reached a maximum at 1 hour, and returned to that of water-injected flies at 4-5 hours (FIG. 3c). […] Nitrite and nitrate excretion likely explained the only partial recovery of NO."}, "[1]": {"system": "vasodilator-stimulated phosphoprotein (VASP) phosphorylated on Ser239 in CS-54 rat vascular smooth muscle cells", "experiment": "VASP phosphorylation in CS-54 cells (immunoblot)", "format": "cell-based", "protocol": "CS-54 rat vascular smooth muscle cells were treated with the indicated concentrations of NO-Cbi for 1 hour (A), or 10 μM NO-Cbi for the indicated times (B and C). […] In A and B, “Con” refers to control, which was cells treated with water. As indicated, the effects of 30 μM cobinamide (Cbi) and 100 μM 8-CPT-cGMP (cGMP) are shown for comparison. In A and B, similar results were obtained in two other experiments.\nBriefly, cells treated with an NO-releasing agent were extracted rapidly in a sodium dodecyl sulfate (SDS) containing sample buffer, and the cell extracts were subjected to SDS-polyacrylamide gel electrophoresis. Phospho-VASP was assessed by immunoblotting using an antibody specific for VASP phosphorylated on Ser259 (Smolenski A et al. (1998) J. Biol. Chem. 273:20029-35).\nTo determine if NO released from NO-Cbi can have a physiologic effect in cultured cells, vasodilator-stimulated phosphoprotein (VASP) phosphorylation was assessed in CS-54 cells."}, "rabbits [2]": {"system": "rabbits", "experiment": "Continuous intravenous infusion in anesthetized rabbits: systemic hemodynamics and gas exchange", "format": "in vivo, rabbit", "method": "NO-Cbi was given by intravenous infusion at a dose of 5 μg/kg/min (4.8 nmol/kg/min) to a 3.5 kg rabbit. […] The infusion was stopped at 10 minutes, but, because of drawing blood through the arterial line for blood gas analysis, the first measurement of blood pressure occurred 6 minutes later. Full recovery required 12 minutes, but it is possible that the initial rate of recovery was faster than shown in the graph. A small overshoot occurred in both systolic and diastolic blood pressure, before returning to pre-treatment levels.\nContinuous intravenous NO-Cbi infusions were performed in anesthetized rabbits with systemic hemodynamic monitoring, continuous gas exchange analysis, and diffuse optical spectroscopy (DOS) and continuous wave near-infrared spectroscopy monitoring. DOS monitoring was over muscle as a representation of peripheral tissue, and continuous wave spectroscopy was over muscle and brain region. Six animals have been studied to date, varying NO-Cbi infusion rates in each animal between 1.7 and 6.9 μg/kg/min (1.6 and 6.7 nmol/kg/min).\nThe blood pressure of rabbits is similar to that of humans, but because of anesthesia, initial blood pressures in the rabbits were on average ˜80/60 mm Hg (FIG. 6). […] Blood pressure returned to baseline within 12 minutes of stopping the infusion, and starting and stopping the infusion repeatedly yielded similar results."}, "isolated mouse hearts": {"system": "isolated mouse hearts", "experiment": "Coronary flow in isolated perfused mouse hearts (Langendorff)", "method": "Hearts and aortas were removed from NIH Swiss mice anesthetized with sodium nembutal, and coronary flow was measured in the hearts using a Langendorff preparation (FIG. 5a) and relaxation of aortic rings was measured after inducing constriction of the rings with prostaglandin F2α (FIG. 5b). The hearts and aortic rings were treated with a range of concentrations of NO-Cbi (filled circles), nitroglycerin (open circles, dotted line, FIG. 5a), and sodium nitroprusside (open circles, FIG. 5b). Coronary flow was measured on the same hearts for both NO-Cbi and nitroglycerin after an appropriate wash-out period between drugs, and aortic ring relaxation was measured on two rings from the same aorta for NO-Cbi and sodium nitroprusside. The data are the mean of two independent experiments performed on two separate hearts in each experiment (FIG. 5a), and the mean±SEM of two independent experiments performed on three separate aortic rings in each experiment (FIG. 5b).\nCoronary flow was measured in isolated perfused mouse hearts in a Langendorff system, and was 10.8±0.5 ml/min/g wet weight (n=7 hearts) under basal conditions. […] The latter value is similar to maximal coronary flow of 24.6±1.8 ml/min/g wet weight obtained with 62 μM adenosine. For nitroglycerin to increase coronary flow to that of NO-Cbi, the nitroglycerin concentration had to be increased to 770 μM, or about 100-fold greater than the NO-Cbi concentration (FIG. 5a)."}, "rabbits [3]": {"system": "rabbits", "experiment": "Rabbits with phenylephrine-induced hypertension", "format": "in vivo, rabbit", "method": "Phenylephrine was given by continuous intravenous infusion to an anesthetized rabbit at increasing rates from 5 to 20 μg/kg/min; the rabbit remained on the highest phenylephrine infusion rate until the end of the experiment (darker arrows with “A”-shaped arrowheads indicate start times of each increasing dose). At 49 minutes, an infusion of NO-Cbi was started at a rate of 3 μg/kg/min (2.9 nmol/kg/min), with the infusion rate doubled at 58 minutes (lighter arrows with triangular-shaped arrowheads indicate start times of infusions). Systolic and diastolic blood pressure recordings from an intra-arterial catheter are shown. Changes in total hemoglobin, oxyhemoglobin, and deoxyhemoglobin concentrations were measured by continuous wave near-infrared spectroscopy over the left thigh muscle. Phenylephrine caused a progressive decrease in total hemoglobin and oxyhemoglobin concentrations, which reversed within seconds of starting the NO-Cbi infusion.\nDecreased tissue oxygenation as occurred in the experiments shown in FIGS. 7 and 8 would clearly be an undesirable effect of treating hypertensive patients with NO-Cbi. However, lowering blood pressure of a hypertensive patient is very different from lowering blood pressure of a normotensive subject, and the experiments described in Example 15 rabbits with normal or low (due to anesthesia) blood pressure. To simulate a hypertensive state, the blood pressure of rabbits was raised using a continuous intravenous infusion of phenylephrine, a peripheral vasoconstrictor (FIG. 9). As the rabbit's blood pressure increased above normal, tissue perfusion and oxygenation decreased, as evidenced by a decrease in total hemoglobin and oxyhemoglobin concentrations in muscle.\nThus, in an animal with drug-induced hypertension, NO-Cbi improved tissue perfusion and oxygenation as it lowered blood pressure."}, "[4]": {"conditions": "continuous gas exchange monitoring"}},
  "data": [
    {"smiles": "CC1=C2[N+]3=C(C=C4[N+]5=C(C(C)=C6[N]7C(C(CC(N)=O)C6(C)CCC(=O)NCC(C)O)C6(C)[N+](=C1C(CCC(N)=O)C6(C)CC(N)=O)[Co-3]753[N]=O)C(CCC(N)=O)C4(C)C)C(CCC(N)=O)C2(C)CC(N)=O", "note": "(centres unmarked) [NO-Cbi, nitrosyl cobinamide]", "values": [
      {"measurement": "injected NO recovered as nitrite and nitrate", "setting": "D. melanogaster", "value": "over 50%"},
      {"measurement": "time of maximum nitrite/nitrate levels", "setting": "D. melanogaster", "value": 1, "unit": "h"},
      {"measurement": "time of return of nitrite/nitrate levels to that of water-injected flies", "setting": "D. melanogaster", "value": "4 to 5", "unit": "h"},
      {"measurement": "course of VASP phosphorylation after the maximum", "setting": "[1]; 10 μM NO-Cbi", "value": "declined over the ensuing 4 hours"},
      {"measurement": "time at which effect on VASP phosphorylation could be observed", "setting": "[1]; 10 μM NO-Cbi", "value": 15, "unit": "min"},
      {"measurement": "time of maximal effect on VASP phosphorylation", "setting": "[1]; 10 μM NO-Cbi", "value": "30 to 60", "unit": "min"},
      {"measurement": "VASP phosphorylation", "setting": "[1]; 1 to 30 μM, 1 hour, CS-54 cells", "value": "induced VASP phosphorylation"},
      {"measurement": "time to new steady-state of blood pressure", "setting": "rabbits [2]; 5 μg/kg/min intravenous infusion", "value": 5, "unit": "min"},
      {"measurement": "time until systolic and diastolic blood pressures began to decrease", "setting": "rabbits [2]; 5 μg/kg/min intravenous infusion, 3.5 kg rabbit", "value": "≤ 15", "unit": "s"},
      {"measurement": "time required for full recovery of blood pressure", "setting": "rabbits [2]; 5 μg/kg/min, infusion stopped at 10 minutes", "value": 12, "unit": "min"},
      {"measurement": "arterial-venous oxygen differences", "setting": "rabbits [2]; [4]", "value": "increased arterial-venous oxygen differences"},
      {"measurement": "end tidal CO2", "setting": "rabbits [2]; [4]", "value": "decreased end tidal CO2"},
      {"measurement": "effects on blood pressure compared with nitroprusside", "setting": "rabbits [2]; equimolar amounts", "value": "more rapid and pronounced than those with equimolar amounts of nitroprusside"},
      {"measurement": "cardiac output (direct Fick method)", "setting": "rabbits [2]; intravenous infusion", "value": "decreased"},
      {"measurement": "heart rate", "setting": "rabbits [2]; intravenous infusion", "value": "did not change significantly"},
      {"measurement": "time for blood pressure to return to baseline after stopping the infusion", "setting": "rabbits [2]; intravenous infusion", "value": "≤ 12", "unit": "min"},
      {"measurement": "blood pressure", "setting": "rabbits [2]; intravenous infusion 1.7 to 6.9 μg/kg/min", "value": "marked infusion-rate-dependent decrease in blood pressure"},
      {"measurement": "physiological half-life of NO-Cbi", "setting": "rabbits [2]; suggested by return of blood pressure", "value": "5-6 minutes"},
      {"measurement": "low concentration that significantly increased coronary flow", "setting": "isolated mouse hearts", "value": 20, "unit": "nM"},
      {"measurement": "coronary flow", "setting": "isolated mouse hearts; 7 μM infused", "value": "22.8±1.2", "unit": "ml/min/g wet weight"},
      {"measurement": "increase of coronary flow", "setting": "isolated mouse hearts; 7 μM infused", "value": "more than two-fold"},
      {"measurement": "blood pressure", "setting": "rabbits [3]; NO-Cbi infusion 3 μg/kg/min during phenylephrine, within seconds", "value": "began to decrease"},
      {"measurement": "total tissue hemoglobin and oxyhemoglobin concentrations", "setting": "rabbits [3]; NO-Cbi infusion during phenylephrine", "value": "increased"}
    ]}
  ]
}
